Patent US10882882B2, “Post fermented tea-derived kaempferol-based compound” (AMOREPACIFIC CORPORATION, priority 2016, dated 2021)

Assays:
healthy adult subjects = test: Human repeated insult patch test (HRIPT), cumulative skin irritation; assay type: in vivo; conditions: for Number of subjects showed ± reactivity, 1st time / Number of subjects showed + reactivity, 1st time / Number of subjects showed ++ reactivity, 1st time: 1st patch; for Number of subjects showed ± reactivity, 1st time / Number of subjects showed ± reactivity, 2nd time / Number of subjects showed ± reactivity, 3rd time / Number of subjects showed ± reactivity, 4th time / Number of subjects showed ± reactivity, 5th time / Number of subjects showed ± reactivity, 6th time / Number of subjects showed ± reactivity, 7th time / Number of subjects showed ± reactivity, 8th time / Number of subjects showed ± reactivity, 9th time: 1st of 3 lines (±); for Number of subjects showed + reactivity, 1st time / Number of subjects showed + reactivity, 2nd time / Number of subjects showed + reactivity, 3rd time / Number of subjects showed + reactivity, 4th time / Number of subjects showed + reactivity, 5th time / Number of subjects showed + reactivity, 6th time / Number of subjects showed + reactivity, 7th time / Number of subjects showed + reactivity, 8th time / Number of subjects showed + reactivity, 9th time: 2nd of 3 lines (+); for Number of subjects showed ++ reactivity, 1st time / Number of subjects showed ++ reactivity, 2nd time / Number of subjects showed ++ reactivity, 3rd time / Number of subjects showed ++ reactivity, 4th time / Number of subjects showed ++ reactivity, 5th time / Number of subjects showed ++ reactivity, 6th time / Number of subjects showed ++ reactivity, 7th time / Number of subjects showed ++ reactivity, 8th time / Number of subjects showed ++ reactivity, 9th time: 3rd of 3 lines (++); for Number of subjects showed ± reactivity, 2nd time / Number of subjects showed + reactivity, 2nd time / Number of subjects showed ++ reactivity, 2nd time: 2nd patch; for Number of subjects showed ± reactivity, 3rd time / Number of subjects showed + reactivity, 3rd time / Number of subjects showed ++ reactivity, 3rd time: 3rd patch; for Number of subjects showed ± reactivity, 4th time / Number of subjects showed + reactivity, 4th time / Number of subjects showed ++ reactivity, 4th time: 4th patch; for Number of subjects showed ± reactivity, 5th time / Number of subjects showed + reactivity, 5th time / Number of subjects showed ++ reactivity, 5th time: 5th patch; for Number of subjects showed ± reactivity, 6th time / Number of subjects showed + reactivity, 6th time / Number of subjects showed ++ reactivity, 6th time: 6th patch; for Number of subjects showed ± reactivity, 7th time / Number of subjects showed + reactivity, 7th time / Number of subjects showed ++ reactivity, 7th time: 7th patch; for Number of subjects showed ± reactivity, 8th time / Number of subjects showed + reactivity, 8th time / Number of subjects showed ++ reactivity, 8th time: 8th patch; for Average reactivity: 9 patches over three weeks, safe when less than 3; for Number of subjects showed ± reactivity, 9th time / Number of subjects showed + reactivity, 9th time / Number of subjects showed ++ reactivity, 9th time: 9th patch
Description: Human repeated insult patch tests (HRIPT) were conducted to determine the cumulative skin irritation by kaempferol3-O-[2-O″-(E)-p-coumaroyl][beta-D-glucopyranosyl-(1→3)-O-alpha-L-rhamnopyranosyl-(1→6)-O-beta-D-glucopyranoside] and to calculate the concentration range in which kaempferol3-O-[2-O″-(E)-p-coumaroyl][beta-D-glucopyranosyl-(1→3)-O-alpha-L-rhamnopyranosyl-(1→6)-O-beta-D-glucopyranoside] can be used on the skin.
Specifically, 15 healthy adult subjects were randomly selected, the test compositions (compositions for skin containing an emulsifier, a stabilizer, purified water, and the like in addition to the compound) containing the compound at 0.5 wt %, 1 wt %, and 3 wt % were dropped by 20 μl per chamber (IQ chamber, Epitest Ltd, Finland), and the patch was applied to the right side of the upper back of the subject and then replaced with new one after 24 hours. The skin reaction was examined before and after the patch test while the patch test was conducted three times a week and thus nine times for three weeks in total in this manner, the skin reaction was observed until the 48th hour after removal of the final patch, and the average reactivity was determined.
The skin reaction was judged according to the criteria of the International Contact Dermatitis Research Group (ICDRG). In the above table, “Novel substance 33” denotes kaempferol3-O-[2-O″-(E)-p-coumaroyl][beta-D-glucopyranosyl-(1→3)-O-alpha-L-rhamnopyranosyl-(1→6)-O-beta-D-glucopyranoside].

beta amyloid (Aβ1-42) = target: T1, beta amyloid (Aβ1-42) (Homo sapiens, UniProt P05067); test: Inhibition of beta amyloid aggregation, fluorescence analysis (ThioflavinT assay); assay type: biochemical
T1 construct: beta amyloid (Aβ1-42, AnaSpec Inc, USA); purchased AnaSpec Inc, USA
T1 sequence (P05067 672-713 limits assumed): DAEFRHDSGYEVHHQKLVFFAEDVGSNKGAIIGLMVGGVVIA
Description: The effect of kaempferol3-O-[2-O″-(E)-p-coumaroyl][beta-D-glucopyranosyl-(1→3)-O-alpha-L-rhamnopyranosyl-(1→6)-O-beta-D-glucopyranoside] on inhibition of beta amyloid aggregation was confirmed by the fluorescence analysis (ThioflavinT assay). Specifically, beta amyloid (Aβ1-42, AnaSpec Inc, USA) was obtained and used at a concentration of 0.1 mg/ml and stored at −80° C. before use. Morin (20 μM), phenol red (20 μM), and kaempferol3-O-[2-O″-(E)-p-coumaroyl][beta-D-glucopyranosyl-(1→3)-O-alpha-L-rhamnopyranosyl-(1→6)-O-beta-D-glucopyranoside] (1 mg/ml) were respectively diluted with DMSO so as to be adjusted to the concentrations. In order to specify the degree of inhibition of Aβ1-42 aggregation, each of the compounds prepared at the above concentrations was diluted with 50 μL of 0.01 M sodium phosphate buffer solution to have a concentration of 10 μM, then 40 μL of 0.1 mg/ml of Aβ1-42 was added thereto, and then 10 μl of 2 mM thioflavinT was added thereto, and fluorescence was measured using a fluorescence spectrometer (RF-5300PC, SHIMADZU CORPORATION, Japan) at 37° C. for 150 minutes at intervals of 5 minutes. In the above table, “RFU” denotes the relative fluorescence unit, and “Increased RFU” denotes the amount of aggregated beta amyloid, and “Increased RFU (% of Pos.Cont.)” denotes the percentage value of the amount of aggregated beta amyloid with respect to that of the positive control group. “Novel substance 33” denotes kaempferol3-O-[2-O″-(E)-p-coumaroyl][beta-D-glucopyranosyl-(1→3)-O-alpha-L-rhamnopyranosyl-(1→6)-O-beta-D-glucopyranoside].

CC1OC(OCC2OC(Oc3c(-c4ccc(O)cc4)oc4cc(O)cc(O)c4c3=O)C(OC(=O)/C=C/c3ccc(O)cc3)C(O)C2O)C(O)C(OC2OC(CO)C(O)C(O)C2O)C1O [Novel substance 33, kaempferol3-O-[2-O″-(E)-p-coumaroyl][beta-D-glucopyranosyl-(1→3)-O-alpha-L-rhamnopyranosyl-(1→6)-O-beta-D-glucopyranoside]]
0 persons: Number of subjects showed ± reactivity, 1st time (healthy adult subjects; 0.5 wt %) | Number of subjects showed + reactivity, 1st time (healthy adult subjects; 0.5 wt %) | Number of subjects showed ++ reactivity, 1st time (healthy adult subjects; 0.5 wt %) | Number of subjects showed ± reactivity, 2nd time (healthy adult subjects; 0.5 wt %) | Number of subjects showed + reactivity, 2nd time (healthy adult subjects; 0.5 wt %) | Number of subjects showed ++ reactivity, 2nd time (healthy adult subjects; 0.5 wt %) | Number of subjects showed ± reactivity, 3rd time (healthy adult subjects; 0.5 wt %) | Number of subjects showed + reactivity, 3rd time (healthy adult subjects; 0.5 wt %) | Number of subjects showed ++ reactivity, 3rd time (healthy adult subjects; 0.5 wt %) | Number of subjects showed ± reactivity, 4th time (healthy adult subjects; 0.5 wt %) | Number of subjects showed + reactivity, 4th time (healthy adult subjects; 0.5 wt %) | Number of subjects showed ++ reactivity, 4th time (healthy adult subjects; 0.5 wt %) | Number of subjects showed ± reactivity, 5th time (healthy adult subjects; 0.5 wt %) | Number of subjects showed + reactivity, 5th time (healthy adult subjects; 0.5 wt %) | Number of subjects showed ++ reactivity, 5th time (healthy adult subjects; 0.5 wt %) | Number of subjects showed ± reactivity, 6th time (healthy adult subjects; 0.5 wt %) | Number of subjects showed + reactivity, 6th time (healthy adult subjects; 0.5 wt %) | Number of subjects showed ++ reactivity, 6th time (healthy adult subjects; 0.5 wt %) | Number of subjects showed ± reactivity, 7th time (healthy adult subjects; 0.5 wt %) | Number of subjects showed + reactivity, 7th time (healthy adult subjects; 0.5 wt %) | Number of subjects showed ++ reactivity, 7th time (healthy adult subjects; 0.5 wt %) | Number of subjects showed ± reactivity, 8th time (healthy adult subjects; 0.5 wt %) | Number of subjects showed + reactivity, 8th time (healthy adult subjects; 0.5 wt %) | Number of subjects showed ++ reactivity, 8th time (healthy adult subjects; 0.5 wt %) | Number of subjects showed ± reactivity, 9th time (healthy adult subjects; 0.5 wt %) | Number of subjects showed + reactivity, 9th time (healthy adult subjects; 0.5 wt %) | Number of subjects showed ++ reactivity, 9th time (healthy adult subjects; 0.5 wt %) | Number of subjects showed ± reactivity, 1st time (healthy adult subjects; 1 wt %) | Number of subjects showed + reactivity, 1st time (healthy adult subjects; 1 wt %) | Number of subjects showed ++ reactivity, 1st time (healthy adult subjects; 1 wt %) | Number of subjects showed ± reactivity, 2nd time (healthy adult subjects; 1 wt %) | Number of subjects showed + reactivity, 2nd time (healthy adult subjects; 1 wt %) | Number of subjects showed ++ reactivity, 2nd time (healthy adult subjects; 1 wt %) | Number of subjects showed ± reactivity, 3rd time (healthy adult subjects; 1 wt %) | Number of subjects showed + reactivity, 3rd time (healthy adult subjects; 1 wt %) | Number of subjects showed ++ reactivity, 3rd time (healthy adult subjects; 1 wt %) | Number of subjects showed ± reactivity, 4th time (healthy adult subjects; 1 wt %) | Number of subjects showed + reactivity, 4th time (healthy adult subjects; 1 wt %) | Number of subjects showed ++ reactivity, 4th time (healthy adult subjects; 1 wt %) | Number of subjects showed ± reactivity, 5th time (healthy adult subjects; 1 wt %) | Number of subjects showed + reactivity, 5th time (healthy adult subjects; 1 wt %) | Number of subjects showed ++ reactivity, 5th time (healthy adult subjects; 1 wt %) | Number of subjects showed ± reactivity, 6th time (healthy adult subjects; 1 wt %) | Number of subjects showed + reactivity, 6th time (healthy adult subjects; 1 wt %) | Number of subjects showed ++ reactivity, 6th time (healthy adult subjects; 1 wt %) | Number of subjects showed ± reactivity, 7th time (healthy adult subjects; 1 wt %) | Number of subjects showed + reactivity, 7th time (healthy adult subjects; 1 wt %) | Number of subjects showed ++ reactivity, 7th time (healthy adult subjects; 1 wt %) | Number of subjects showed ± reactivity, 8th time (healthy adult subjects; 1 wt %) | Number of subjects showed + reactivity, 8th time (healthy adult subjects; 1 wt %) | Number of subjects showed ++ reactivity, 8th time (healthy adult subjects; 1 wt %) | Number of subjects showed ± reactivity, 9th time (healthy adult subjects; 1 wt %) | Number of subjects showed + reactivity, 9th time (healthy adult subjects; 1 wt %) | Number of subjects showed ++ reactivity, 9th time (healthy adult subjects; 1 wt %) | Number of subjects showed ± reactivity, 1st time (healthy adult subjects; 3 wt %) | Number of subjects showed + reactivity, 1st time (healthy adult subjects; 3 wt %) | Number of subjects showed ++ reactivity, 1st time (healthy adult subjects; 3 wt %) | Number of subjects showed ± reactivity, 2nd time (healthy adult subjects; 3 wt %) | Number of subjects showed + reactivity, 2nd time (healthy adult subjects; 3 wt %) | Number of subjects showed ++ reactivity, 2nd time (healthy adult subjects; 3 wt %) | Number of subjects showed ± reactivity, 3rd time (healthy adult subjects; 3 wt %) | Number of subjects showed + reactivity, 3rd time (healthy adult subjects; 3 wt %) | Number of subjects showed ++ reactivity, 3rd time (healthy adult subjects; 3 wt %) | Number of subjects showed ± reactivity, 4th time (healthy adult subjects; 3 wt %) | Number of subjects showed + reactivity, 4th time (healthy adult subjects; 3 wt %) | Number of subjects showed ++ reactivity, 4th time (healthy adult subjects; 3 wt %) | Number of subjects showed ± reactivity, 5th time (healthy adult subjects; 3 wt %) | Number of subjects showed + reactivity, 5th time (healthy adult subjects; 3 wt %) | Number of subjects showed ++ reactivity, 5th time (healthy adult subjects; 3 wt %) | Number of subjects showed ± reactivity, 6th time (healthy adult subjects; 3 wt %) | Number of subjects showed + reactivity, 6th time (healthy adult subjects; 3 wt %) | Number of subjects showed ++ reactivity, 6th time (healthy adult subjects; 3 wt %) | Number of subjects showed ± reactivity, 7th time (healthy adult subjects; 3 wt %) | Number of subjects showed + reactivity, 7th time (healthy adult subjects; 3 wt %) | Number of subjects showed ++ reactivity, 7th time (healthy adult subjects; 3 wt %) | Number of subjects showed ± reactivity, 8th time (healthy adult subjects; 3 wt %) | Number of subjects showed + reactivity, 8th time (healthy adult subjects; 3 wt %) | Number of subjects showed ++ reactivity, 8th time (healthy adult subjects; 3 wt %) | Number of subjects showed ± reactivity, 9th time (healthy adult subjects; 3 wt %) | Number of subjects showed + reactivity, 9th time (healthy adult subjects; 3 wt %) | Number of subjects showed ++ reactivity, 9th time (healthy adult subjects; 3 wt %)
23.0%: inhibition of beta amyloid aggregation as compared with the positive control group (beta amyloid (Aβ1-42); positive control (only beta amyloid, no compound) taken as 100%)
0: Average reactivity (healthy adult subjects; 0.5 wt %) | Average reactivity (healthy adult subjects; 1 wt %) | Average reactivity (healthy adult subjects; 3 wt %)
11235 RFU: Increased RFU (amount of aggregated beta amyloid) (beta amyloid (Aβ1-42); compound 10 μM, Aβ1-42 0.1 mg/ml, thioflavinT, 37° C., 150 minutes)
77.0%: Increased RFU (% of Pos. Cont.) (beta amyloid (Aβ1-42); compound 10 μM, Aβ1-42 0.1 mg/ml, 37° C., 150 minutes, Pos. Cont. (beta amyloid only) = 100)
without cumulative skin irritation: cumulative skin irritation (healthy adult subjects; HRIPT, 0.5 to 3 wt %)
